Results reported in ChEMBL document CHEMBL2074505, “Imaging reversal of multidrug resistance in living mice with bioluminescence: MDR1 P-glycoprotein transports coelenterazine” (Proc Natl Acad Sci U S A, 2004).

Target: ATP-dependent translocase ABCB1 (Homo sapiens, UniProt P08183)
Test: TP_TRANSPORTER: efflux in KB 8-5-11 Rluc cells
Assay type: functional, cell-based

Chain of ATP-dependent translocase ABCB1 (P08183 whole entry): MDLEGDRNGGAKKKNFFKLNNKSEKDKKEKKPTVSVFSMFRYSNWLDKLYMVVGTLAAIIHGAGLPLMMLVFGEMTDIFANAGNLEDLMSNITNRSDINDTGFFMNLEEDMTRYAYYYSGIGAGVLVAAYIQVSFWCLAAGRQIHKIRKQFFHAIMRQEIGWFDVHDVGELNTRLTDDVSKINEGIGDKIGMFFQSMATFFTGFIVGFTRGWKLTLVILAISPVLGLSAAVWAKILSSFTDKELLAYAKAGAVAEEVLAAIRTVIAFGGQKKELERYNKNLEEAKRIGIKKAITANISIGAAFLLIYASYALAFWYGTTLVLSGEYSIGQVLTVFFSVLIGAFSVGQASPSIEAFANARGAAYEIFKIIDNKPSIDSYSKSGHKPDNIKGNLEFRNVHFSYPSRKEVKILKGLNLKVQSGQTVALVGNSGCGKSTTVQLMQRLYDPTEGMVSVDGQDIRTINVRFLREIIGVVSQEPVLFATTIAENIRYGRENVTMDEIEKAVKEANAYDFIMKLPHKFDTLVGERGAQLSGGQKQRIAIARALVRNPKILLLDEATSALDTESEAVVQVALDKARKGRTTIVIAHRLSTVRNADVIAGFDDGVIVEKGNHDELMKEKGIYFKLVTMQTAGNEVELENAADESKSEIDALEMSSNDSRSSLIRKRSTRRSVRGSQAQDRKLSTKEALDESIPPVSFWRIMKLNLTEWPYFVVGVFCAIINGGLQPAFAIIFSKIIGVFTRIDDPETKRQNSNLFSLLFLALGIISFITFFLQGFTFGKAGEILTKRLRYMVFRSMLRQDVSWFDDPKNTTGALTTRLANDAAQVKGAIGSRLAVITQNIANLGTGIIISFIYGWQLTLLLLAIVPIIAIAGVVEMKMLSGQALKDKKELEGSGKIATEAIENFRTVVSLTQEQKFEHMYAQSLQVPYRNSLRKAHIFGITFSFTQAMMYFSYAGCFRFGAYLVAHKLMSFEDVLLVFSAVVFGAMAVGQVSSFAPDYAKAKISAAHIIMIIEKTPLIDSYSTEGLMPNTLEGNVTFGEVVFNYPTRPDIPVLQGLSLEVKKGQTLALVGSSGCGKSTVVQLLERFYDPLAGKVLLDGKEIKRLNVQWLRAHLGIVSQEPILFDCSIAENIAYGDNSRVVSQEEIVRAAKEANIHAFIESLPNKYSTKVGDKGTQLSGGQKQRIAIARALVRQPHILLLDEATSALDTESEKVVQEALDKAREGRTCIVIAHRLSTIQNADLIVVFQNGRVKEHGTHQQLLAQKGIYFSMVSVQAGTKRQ

Oc1ccc(Cc2nc3c(Cc4ccccc4)nc(-c4ccc(O)cc4)cn3c2O)cc1 [COELENTERAZINE]
EC50: 147 nM
